In patent publication US20230321123A1, “INHIBITORS OF PSEUDOMONAS AERUGINOSA VIRULENCE FACTOR LasB” (Helmholtz-Zentrum Für Infektionsforschung GmbH, priority 2020, published 2023):

Legend:
[1] = target: CYP3A4 (Homo sapiens, UniProt P08684); assay: CYP inhibition CYP3A4; type: in vitro ADME
Text: (§1) As the compound of example 2 has shown an impressive activity in the in vitro LasB inhibition assay, high selectivity over a broad spectrum of human enzymes and no signs of cytotoxicity in vitro, it has been subjected to a more advanced safety screening (Table 9).

[2] = Cytotoxicity HEK293; type: cell-based; details: human; HEK293
Description: (§2) The compounds of examples 1 and 5 were not toxic against the cell lines HepG2, HEK293 and A549 (Table 5). Additionally, the inhibitory effect against P. aeruginosa PA14 was evaluated to exclude an antibacterial effect of the compounds of the present invention. This is important as it was the aim to target virulence and not viability of the bacteria. […]

[3] = target: LasB (Pseudomonas aeruginosa, UniProt Q02RJ6); assay: biochemical; set-up: species or system P. aeruginosa; details: IC50 against LasB
[4] = target: T1, HDAC-8 (Homo sapiens, UniProt Q9BY41); assay: Selectivity against human off-targets: HDAC-8; type: biochemical; details: read-out: IC50 HDAC-8
T1 sequence (Q9BY41 1-377): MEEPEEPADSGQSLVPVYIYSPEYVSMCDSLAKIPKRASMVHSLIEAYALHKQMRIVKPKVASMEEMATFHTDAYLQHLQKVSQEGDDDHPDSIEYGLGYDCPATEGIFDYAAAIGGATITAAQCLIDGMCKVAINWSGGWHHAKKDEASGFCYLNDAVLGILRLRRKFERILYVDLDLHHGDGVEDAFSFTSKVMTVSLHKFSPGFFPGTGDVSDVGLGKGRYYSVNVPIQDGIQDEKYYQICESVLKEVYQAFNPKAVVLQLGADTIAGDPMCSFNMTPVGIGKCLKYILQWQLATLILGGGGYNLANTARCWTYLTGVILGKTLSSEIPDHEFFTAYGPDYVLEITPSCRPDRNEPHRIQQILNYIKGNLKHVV
Text: (§3) The inhibition of zinc-containing human enzymes is described frequently for LasB inhibitors and poses a serious difficulty in the development of selective compounds. Particularly, the inhibition of matrix metalloproteases (MMPs) should be avoided. To further investigate this issue, three derivatives (the compounds of examples 1, 5 and 8) have been tested for their selectivity against several human off-targets, including six MMPs, ADAM17 (TACE), HDAC-3 and HDAC-8 (Table 4). The selectivity of the compounds is particularly high for MMPs and HDACs, whereas the inhibition of ADAM17 was considerably stronger.

[5] = Cytotoxicity A549; type: cell-based; details: human; A549
Description: as §2

[6] = target: T2, MMP-2 (Homo sapiens, UniProt P08253); assay: Selectivity against human off-targets: MMP-2; type: biochemical; details: read-out: Inhibition [%] MMP-2
T2 sequence (P08253 110-660): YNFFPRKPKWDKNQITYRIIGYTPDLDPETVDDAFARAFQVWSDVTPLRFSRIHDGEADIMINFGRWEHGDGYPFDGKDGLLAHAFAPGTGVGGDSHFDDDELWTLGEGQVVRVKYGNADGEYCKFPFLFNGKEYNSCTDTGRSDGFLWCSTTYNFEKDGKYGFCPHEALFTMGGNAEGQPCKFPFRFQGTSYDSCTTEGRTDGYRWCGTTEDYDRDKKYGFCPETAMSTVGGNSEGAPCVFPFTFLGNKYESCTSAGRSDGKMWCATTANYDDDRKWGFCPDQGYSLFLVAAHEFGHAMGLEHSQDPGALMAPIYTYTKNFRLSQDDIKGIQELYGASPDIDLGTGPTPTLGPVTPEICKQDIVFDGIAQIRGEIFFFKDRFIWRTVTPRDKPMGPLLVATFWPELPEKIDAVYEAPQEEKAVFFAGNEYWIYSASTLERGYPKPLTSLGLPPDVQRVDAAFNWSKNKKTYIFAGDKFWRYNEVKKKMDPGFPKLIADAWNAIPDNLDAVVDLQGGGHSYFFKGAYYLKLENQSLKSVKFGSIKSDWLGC
Text: as §3

[7] = mini-Ames reverse mutation assay; type: cell-based; details: up to 125 μg/mL
Text: as §1

[8] = target: MMP-3 (Homo sapiens, UniProt P08254); assay: Selectivity against human off-targets: MMP-3; type: biochemical; details: read-out: Inhibition [%] MMP-3
Text: as §3

[9] = target: CYP2C9 (Homo sapiens, UniProt P11712); assay: CYP inhibition CYP2C9; type: in vitro ADME
Text: as §1

Sequence of CYP3A4 (P08684 whole entry): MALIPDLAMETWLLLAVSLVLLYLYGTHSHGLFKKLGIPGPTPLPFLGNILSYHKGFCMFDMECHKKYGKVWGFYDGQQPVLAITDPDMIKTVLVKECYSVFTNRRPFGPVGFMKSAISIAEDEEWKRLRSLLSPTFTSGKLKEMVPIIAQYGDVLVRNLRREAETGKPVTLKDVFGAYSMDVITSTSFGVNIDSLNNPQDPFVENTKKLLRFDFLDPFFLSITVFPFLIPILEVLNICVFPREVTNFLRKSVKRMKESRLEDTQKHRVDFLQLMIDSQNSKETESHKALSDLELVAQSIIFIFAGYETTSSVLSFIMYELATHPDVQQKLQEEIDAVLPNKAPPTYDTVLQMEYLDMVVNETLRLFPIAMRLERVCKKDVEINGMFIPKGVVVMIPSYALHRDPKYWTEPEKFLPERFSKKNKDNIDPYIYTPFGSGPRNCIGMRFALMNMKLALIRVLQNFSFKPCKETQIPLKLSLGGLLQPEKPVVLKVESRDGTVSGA
Sequence of LasB (Q02RJ6 198-498): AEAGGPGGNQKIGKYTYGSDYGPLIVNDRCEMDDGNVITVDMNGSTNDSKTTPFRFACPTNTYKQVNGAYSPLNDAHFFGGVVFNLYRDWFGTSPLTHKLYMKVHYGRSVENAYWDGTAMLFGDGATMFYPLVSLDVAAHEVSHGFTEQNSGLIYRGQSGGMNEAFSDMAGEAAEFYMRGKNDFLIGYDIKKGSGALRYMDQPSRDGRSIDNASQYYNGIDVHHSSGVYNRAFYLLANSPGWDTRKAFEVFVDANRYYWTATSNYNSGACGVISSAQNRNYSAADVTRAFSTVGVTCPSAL
Sequence of MMP-3 (P08254 100-477): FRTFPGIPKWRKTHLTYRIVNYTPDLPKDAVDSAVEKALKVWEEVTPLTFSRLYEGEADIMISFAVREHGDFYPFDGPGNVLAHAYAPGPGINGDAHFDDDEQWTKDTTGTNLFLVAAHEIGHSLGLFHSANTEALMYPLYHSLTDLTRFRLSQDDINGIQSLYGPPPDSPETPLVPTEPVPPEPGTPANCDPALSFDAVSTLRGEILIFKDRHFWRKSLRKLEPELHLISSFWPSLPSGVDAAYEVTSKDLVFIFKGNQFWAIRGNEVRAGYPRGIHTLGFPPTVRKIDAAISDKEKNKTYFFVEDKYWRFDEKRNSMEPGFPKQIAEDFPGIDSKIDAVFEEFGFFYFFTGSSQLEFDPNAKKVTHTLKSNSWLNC
Sequence of CYP2C9 (P11712 whole entry): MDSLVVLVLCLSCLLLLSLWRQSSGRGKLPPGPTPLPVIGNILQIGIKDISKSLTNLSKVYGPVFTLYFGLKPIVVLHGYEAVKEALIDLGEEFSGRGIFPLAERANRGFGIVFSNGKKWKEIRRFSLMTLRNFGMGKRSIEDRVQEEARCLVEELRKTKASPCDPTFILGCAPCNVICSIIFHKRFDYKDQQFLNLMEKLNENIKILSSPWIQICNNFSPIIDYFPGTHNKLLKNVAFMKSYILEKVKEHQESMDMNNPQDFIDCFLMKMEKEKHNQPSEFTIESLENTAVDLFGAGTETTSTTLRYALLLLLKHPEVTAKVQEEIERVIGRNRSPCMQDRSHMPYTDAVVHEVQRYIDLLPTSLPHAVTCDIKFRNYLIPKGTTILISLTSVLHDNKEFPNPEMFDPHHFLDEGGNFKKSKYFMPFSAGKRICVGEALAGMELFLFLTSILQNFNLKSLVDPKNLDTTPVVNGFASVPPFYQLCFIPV

Cc1ccc(NC(=O)C(S)CC(C)C)cc1 (stereo not shown) [Example 2, 2-Mercapto-4-methyl-N-(p-tolyl)pentanamide]
IC50 [1]: 15 µM | IC50 [2]: > 50 µM | IC50 [3]: 0.4 ± 0.13 µM | melting point: 90 °C | IC50 [4]: > 100 µM | IC50 [5]: > 100 µM | inhibition at 100 µM [6]: < 10% | Mini-Ames genotoxicity [7]: no genotoxicity and No | inhibition at 100 µM [8]: < 10% | IC50 [9]: > 25 µM
